Reference: patent publication US8436023B2, “Cyclohexyl-azetidinyl antagonists of CCR2” (Janssen Pharmaceutica N.V., priority 2010, dated 2013)
pIC50: −log10 of the molar value. Where a name gives a salt, the structure may show the parent alone.

Target: T1, CCR2 (Homo sapiens, UniProt P41597)
T1 construct: host or cells: THP-1 human monocytic cells
T1 sequence (P41597 1-360 isoform P41597-2): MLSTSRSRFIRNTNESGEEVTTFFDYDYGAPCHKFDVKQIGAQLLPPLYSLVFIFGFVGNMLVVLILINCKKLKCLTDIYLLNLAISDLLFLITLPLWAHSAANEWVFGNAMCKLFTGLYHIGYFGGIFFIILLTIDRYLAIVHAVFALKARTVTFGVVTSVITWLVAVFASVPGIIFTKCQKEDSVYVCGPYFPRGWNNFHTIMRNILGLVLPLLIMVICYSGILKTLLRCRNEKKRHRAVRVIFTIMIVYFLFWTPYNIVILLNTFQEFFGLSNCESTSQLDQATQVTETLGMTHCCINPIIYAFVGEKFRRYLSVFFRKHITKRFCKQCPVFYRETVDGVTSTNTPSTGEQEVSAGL
Experiment: MCP-1 Receptor Binding Assay in THP-1 Cells
Settings: 0.5 nM 125I labeled MCP-1, 2 hours at 30° C., less polar isomer tested where stated, read-out: Inhibition of MCP-1 Binding IC50, CCR2 Binding
Summary of the method: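 Whole THP-1 cells incubated 2 h at 30 °C with 0.5 nM 125I-MCP-1 and varying concentrations of test compound; bound radioactivity counted after filter harvesting. Where no IC50 obtained, % inhibition given at 25 μM.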

SMILES | pIC50
Cn1nc(NCC(=O)NC2CN(C3CCC(O)(c4cncs4)CC3)C2)c2cc(C(O)C(F)(F)F)ccc21 (stereo not drawn) [Example 61, N-[1-(4-Hydroxy-4-thiazol-5-yl-cyclohexyl)-azetidin-3-yl]-2-[1-methyl-5-(2,2,2-trifluoro-1-hydroxy-ethyl)-1H-indazol-3-ylamino]-acetamide] | 5.77
CC(C)C1CCC(N2CC(NC(=O)CNc3noc4ccc(C(F)(F)F)cc34)C2)CC1 (stereo not drawn) [Example 7, N-[1-(4-Isopropyl-cyclohexyl)-azetidin-3-yl]-2-(5-trifluoromethyl-benzo[d]isoxazol-3-ylamino)-acetamide] | 6.77
CCOC1CCC(N2CC(NC(=O)CNc3nn(C)c4ccc(C(F)(F)F)cc34)C2)CC1 (stereo not drawn) [Example 36, N-[1-(4-Ethoxy-cyclohexyl)-azetidin-3-yl]-2-(1-methyl-5-trifluoromethyl-1H-indazol-3-ylamino)-acetamide] | 6.64
CC(C)C1CCC(N2CC(NC(=O)CNc3noc4ccc(OC(F)(F)F)cc34)C2)CC1 (stereo not drawn) [Example 17, N-[1-(4-Isopropyl-cyclohexyl)-azetidin-3-yl]-2-(5-trifluoromethoxy-benzo[d]isoxazol-3-ylamino)-acetamide] | 6.12
C=CCOC1CCC(N2CC(NC(=O)CNc3nn(C)c4ccc(C(F)(F)F)cc34)C2)CC1 (stereo not drawn) [Example 37, N-[1-(4-Allyloxy-cyclohexyl)-azetidin-3-yl]-2-(1-methyl-5-trifluoromethyl-1H-indazol-3-ylamino)-acetamide] | 6.87
CC(C)(C)OC(=O)NC1CCC(N2CC(NC(=O)CNc3noc4ccc(C(F)(F)F)cc34)C2)CC1 (stereo not drawn) [Example 10, (4-{3-[2-(5-Trifluoromethyl-benzo[d]isoxazol-3-ylamino)-acetylamino]-azetidin-1-yl}-cyclohexyl)-carbamic acid tert-butyl ester] | 6.12
CCc1ncc(C2(O)CCC(N3CC(NC(=O)CNc4nn(C)c5ccc(C(F)(F)F)cc45)C3)CC2)s1 (stereo not drawn) [Example 23, N-{1-[4-(2-Ethyl-thiazol-5-yl)-4-hydroxy-cyclohexyl]-azetidin-3-yl}-2-(1-methyl-5-trifluoromethyl-1H-indazol-3-ylamino)-acetamide] | 6.74
NC1CCC(N2CC(NC(=O)CNc3noc4ccc(C(F)(F)F)cc34)C2)CC1 (stereo not drawn) [Example 11, N-[1-(4-Amino-cyclohexyl)-azetidin-3-yl]-2-(5-trifluoromethyl-benzo[d]isoxazol-3-ylamino)-acetamide TFA salt] | 5.54

Compounds with a higher pIC50, results first:

pIC50 | SMILES
7.51 | O=C(CNc1noc2ccc(C(F)(F)F)cc12)NC1CN(C2CCC(O)(c3nccs3)CC2)C1 (stereo not drawn) [Example 4, N-[1-(4-Hydroxy-4-thiazol-2-yl-cyclohexyl)-azetidin-3-yl]-2-(5-trifluoromethyl-benzo[d]isoxazol-3-ylamino)-acetamide]
7.51 | O=C(CNc1noc2ccc(C(F)(F)F)cc12)NC1CN(C2CCC(O)(c3cncs3)CC2)C1 (stereo not drawn) [Example 3, N-[1-(4-Hydroxy-4-thiazol-5-yl-cyclohexyl)-azetidin-3-yl]-2-(5-trifluoromethyl-benzo[d]isoxazol-3-ylamino)-acetamide]
7.57 | CCOC(=O)C1CCC(N2CC(NC(=O)CNc3n[nH]c4ccc(C(F)(F)F)cc34)C2)CC1 (stereo not drawn) [Example 50, 4-{3-[2-(5-Trifluoromethyl-1H-indazol-3-ylamino)-acetylamino]-azetidin-1-yl}-cyclohexane carboxylic acid ethyl ester]
7.57 | CCOCC1CCC(N2CC(NC(=O)CNc3nn(C)c4ccc(C(F)(F)F)cc34)C2)CC1 (stereo not drawn) [Example 34, N-[1-(4-Ethoxymethyl-cyclohexyl)-azetidin-3-yl]-2-(1-methyl-5-trifluoromethyl-1H-indazol-3-ylamino)-acetamide]
7.66 | COC(F)(c1ccc2c(c1)c(NCC(=O)NC1CN(C3CCC(O)(c4ccc(C)nc4)CC3)C1)nn2C)C(F)(F)F (stereo not drawn) [Example 103, N-{1-[4-Hydroxy-4-(6-methyl-pyridin-3-yl)-cyclohexyl]-azetidin-3-yl}-2-[1-methyl-5-(1,2,2,2-tetrafluoro-1-methoxy-ethyl)-1H-indazol-3-ylamino]-acetamide]
7.72 | Cn1nc(NCC(=O)NC2CN(C3CCC(O)(c4ccccc4)CC3)C2)c2cc(C(F)(F)F)ccc21 (stereo not drawn) [Example 29, N-[1-(4-Hydroxy-4-phenyl-cyclohexyl)-azetidin-3-yl]-2-(1-methyl-5-trifluoromethyl-1H-indazol-3-ylamino)-acetamide]
7.80 | O=C(CNc1n[nH]c2ccc(C(F)(F)F)cc12)NC1CN(C2CCC(O)(c3cncs3)CC2)C1 (stereo not drawn) [Example 42, N-[1-(4-Hydroxy-4-thiazol-5-yl-cyclohexyl)-azetidin-3-yl]-2-(5-trifluoromethyl-1H-indazol-3-ylamino)-acetamide]
8.03 | COc1ccc(C2(O)CCC(N3CC(NC(=O)CNc4nn(C)c5ccc(C(F)(F)F)cc45)C3)CC2)cn1 (stereo not drawn) [Example 18, N-{1-[4-Hydroxy-4-(6-methoxy-pyridin-3-yl)-cyclohexyl]-azetidin-3-yl}-2-(1-methyl-5-trifluoromethyl-1H-indazol-3-ylamino)-acetamide]
8.12 | Cc1ccc(C2(O)CCC(N3CC(NC(=O)CNc4nn(C)c5ccc(C(F)(F)F)cc45)C3)CC2)cn1 (stereo not drawn) [Example 30, N-{1-[4-Hydroxy-4-(6-methyl-pyridin-3-yl)-cyclohexyl]-azetidin-3-yl}-2-(1-methyl-5-trifluoromethyl-1H-indazol-3-ylamino)-acetamide]
8.24 | Cc1ccc(C2(O)CCC(N3CC(NC(=O)CNc4n[nH]c5ccc(C(F)(F)F)cc45)C3)CC2)cn1 (stereo not drawn) [Example 43, N-{1-[4-Hydroxy-4-(6-methyl-pyridin-3-yl)-cyclohexyl]-azetidin-3-yl}-2-(5-trifluoromethyl-1H-indazol-3-ylamino)-acetamide]
